Reference: article PMC8322648, “Brevibacillin 2V Exerts Its Bactericidal Activity via Binding to Lipid II and Permeabilizing Cellular Membranes” (Frontiers in Microbiology, 2021)

What was measured:
[1] = tested on: S. aureus ATCC15975 (MRSA); test: Time-killing assay; assay type: cell-based, Staphylococcus aureus; details: for killing kinetics / capacity, in words: 10 × MIC (brevibacillins 20 μg/ml; nisin 40 μg/ml)
Method: This assay was performed according to a previously described procedure ([Ling et al., 2015]; [Zhao et al., 2020b]). An overnight culture of cells [S. aureus ATCC15975 (MRSA)] was diluted 50-fold in MHB and incubated at 37°C with aeration at 220 rpm. Bacteria were grown to an OD600 of 0.5, and then, the concentration of cells was adjusted to ≈ 5 × 10^6 cells per ml. Bacteria were then challenged with nisin (40 μg/ml), brevibacillin (20 μg/ml), brevibacillin V (20 μg/ml), brevibacillin I (20 μg/ml), or brevibacillin 2V (20 μg/ml) in culture tubes at 37°C and 220 rpm (peptides at 10 × MIC, a desirable concentration at the site of infection). Bacteria not treated with peptides were used as negative controls. At desired time points, 200 μl aliquots were taken, centrifuged at 8,000 g for 2 min, and resuspended in 200 μl of MHB. 10-fold serially diluted samples were plated on MHA plates. After incubated at 37°C overnight, colonies were counted and c.f.u. per ml was calculated. Each experiment was performed in triplicate.

[2] = tested on: S. aureus ATCC15975 (MRSA) membrane; test: DiSC3(5) membrane potential assay; assay type: cell-based, Staphylococcus aureus; details: 2 × MIC; for rank order of membrane disruption capacity: correlates with calculated hydrophobicity
Method: Staphylococcus aureus ATCC15975 (MRSA) was grown to an OD600 of 0.8. The culture was pelleted at 5,000 × g for 5 min and washed three times in 10 mm HEPES with 10 mm glucose (pH 7.2). The cell density was normalized to an OD600 of 0.2, loaded with 2 μm DiSC3(5) dye, and incubated for 20 min in the dark for probe fluorescence to stabilize. After incubation, KCl was added to the cell suspension at a final concentration of 100 mm. Subsequently, the cell suspension was added to a 96-well microplate and incubation for 5 min; after that, antibiotics were added at a final concentration of 2 × MIC. Fluorescence was monitored for 25 min, with the antibiotics added after ~20 s. The excitation and emission wavelengths on the fluorescence spectrometer were adjusted to 622 nm and 670 nm, respectively. Representative examples from three technical replicates are shown.

[3] = Pyrene-labeled Lipid II fluorescence quenching assay; assay type: binding; details: 50 μM DOPC LUVs with 0.5 mol % pyrene-labeled Lipid II, 20°C, ex 350 nm
Method: The effects of antibiotics on pyrene-labeled Lipid II were measured using 50 μm DOPC-based large unilamellar vesicles (LUVs) containing 0.5 mol % pyrene-labeled Lipid II ([Breukink et al., 2003]). Briefly, the LUVs were added to a quartz cuvette and titrated with nisin, brevibacillin, or brevibacillin 2V with stirring at 20°C. The fluorescence spectra were recorded between 360 and 600 nm (λex350 nm) using a Cary Eclipse Fluorescence Spectrophotometer (Agilent, United States).

[4] = Carboxyfluorescein leakage assay, LUVs of pure DOPC; details: peptide 100 nM; pure DOPC LUVs 5 μM; 25 mM Tris-HCl, 150 mM NaCl, pH 7.5; ex 492/em 515 nm
Method: LUVs that contain DOPC or DOPC plus 0.1% Lipid II were prepared for a carboxyfluorescein (CF) leakage assay. The lipids were dried by a nitrogen stream and followed under vacuum for 2 h. After that, the lipids were hydrated by adding 25 mm Tris-HCl, 150 mm NaCl, and pH 7.5 containing 50 mm CF. The suspensions were frozen and thawed 10 times, followed by extrusion through 200nm membrane filters (Whatman Nuclepore, Track-Etch Membranes) 10 times. The excess dye was removed by loading vesicles on a spin column (Sephadex G50) for 2 min at 500 × g. Subsequently, the vesicles were diluted to 5 μm, and the brevibacillins-induced release of CF from the vesicles was monitored by measuring the increase in fluorescence intensity. The maximum fluorescence was reached by adding 10 μl of 20% Triton X-100. A Cary Eclipse Fluorescence Spectrophotometer (Agilent, United States) was used to determine the changes of fluorescence signals, and the excitation wavelength and emission wavelength were adjusted to 492 nm and 515 nm, respectively.

[5] = tested on: Staphylococcus aureus (MRSA); details: ref Zhao et al., cited from earlier work; for MIC: Staphylococcus aureus (MRSA), Figure 1, 2021; for MIC (molar): strain not given, compared with CF leakage concentration, 2021 (MIC source, b3)
Excerpt: Figure 1 Structures of brevibacillins. The red color indicates the more hydrophobic amino acid residues of brevibacillin V, brevibacillin and brevibacillin I relative to brevibacillin 2V. MIC, the minimum inhibitory concentration against Staphylococcus aureus (MRSA). HC50, the 50% human blood cell hemolysis concentration. CC50, the 50% cell (HepG2) toxicity concentration. […] LUVs-based CF leakage assay is widely used in the studies of the antibiotic mode of action ([Hasper et al., 2004]; [Smith et al., 2008]; [Slootweg et al., 2015]; [Bakhtiary et al., 2017]). Disruption of the vesicle membrane by certain compounds releases CF from the LUVs into the extra-vesicular milieu resulting in increased fluorescence signal (Figure ...

HepG2 = details: Figure 1, ref Zhao et al., 2021; cited from earlier work
Excerpt: (§1) A vast number of bacterial non-ribosomally produced peptides (NRPs) have shown strong antimicrobial activity against pathogenic bacteria ([Cochrane et al., 2014]; [Cociancich et al., 2015]; [Hamamoto et al., 2015]; [Ling et al., 2015]; [Süssmuth and Mainz, 2017]). Lipo-tridecapeptides, a class of NRPs, show strong antimicrobial activity against Gram-positive pathogens, including antibiotic-resistant Staphylococcus aureus and Enterococcus spp. ([Barsby et al., 2001], [2006]; [Yang et al., 2016]; [Wu et al., 2019]; [Zhao et al., 2021]). However, many of these lipo-tridecapeptides have shown high ... || Figure 1 Structures of brevibacillins. The red color indicates the more hydrophobic amino acid residues of brevibacillin V, brevibacillin and brevibacillin I relative to brevibacillin 2V. MIC, the minimum inhibitory concentration against Staphylococcus aureus (MRSA). HC50, the 50% human blood cell hemolysis concentration. CC50, the 50% cell (HepG2) toxicity concentration.

human red blood cells = details: 2021, cited from earlier work; for HC50, 50% human blood cell hemolysis concentration: Figure 1, ref Zhao et al.
Excerpt: as §1

Q: What does the source list for Brevibacillin?
A: killing kinetics / capacity, in words ([1]; MHB, 37°C): intermediate killing capacity; time to complete killing of all cells ([1]; 10 × MIC (nisin 40 μg/ml; brevibacillins 20 μg/ml), ≈ 5 × 10^6 cells per ml, MHB, 37°C, 220 rpm, triplicate): ≤ 2 h; speed of membrane permeabilization [2]: appeared to act faster than brevibacillin 2V and the well-known pore-forming antibiotic nisin; rank order of membrane disruption capacity [2]: brevibacillin I > brevibacillin > brevibacillin V > brevibacillin 2V; excimer fluorescence (about 490 nm) [3]: no excimer fluorescence could be detected; pyrene monomer fluorescence [3]: decreased the monomer fluorescence; membrane disruption (CF leakage), LUVs lacking Lipid II [4]: still caused rapid disruption of membrane; MIC [5]: 2 µg/mL; MIC (molar) [5]: 1.3 µM; CC50, 50% cell (HepG2) toxicity concentration (HepG2): 5.21 ± 0.01 µg/mL; HC50, 50% human blood cell hemolysis concentration (human red blood cells): 25.1 ± 0.1 mg/L

Q: With Brevibacillin 2V as the substance, how does the “killing kinetics / capacity, in words” value ([1]; MHB, 37°C) read?
A: Its value is “slowest killing capacity among brevibacillins, with similar killing kinetics as nisin”.

Q: What about the “bactericidal or bacteriostatic action” value ([1]; S. aureus (MRSA), 10 × MIC) of the same substance?
A: Its value is “bactericidal antimicrobial agent”.

Q: And the “rank order of membrane disruption capacity” value [2]?
A: Its value is “brevibacillin I > brevibacillin > brevibacillin V > brevibacillin 2V”.

Q: And the “excimer fluorescence (about 490 nm)” value [3]?
A: The value was “no excimer fluorescence could be detected”.

Q: And the pyrene monomer fluorescence [3]?
A: Its pyrene monomer fluorescence is “decreased the monomer fluorescence”.

Q: What about the “membrane disruption (CF leakage), LUVs lacking Lipid II” value [4] of the same substance?
A: The value was “still caused rapid disruption of membrane”.

Q: And the MIC [5]?
A: Its MIC is 2 µg/mL.

Q: And the “MIC (molar)” value [5]?
A: Its value is 1.3 µM.

Q: And the “CC50, 50% cell (HepG2) toxicity concentration” value (HepG2)?
A: Its value is 45.49 ± 0.24 µg/mL.

Q: What about the “cytotoxicity relative to the other brevibacillins” value (HepG2) of the same substance?
A: The value was “much lower cytotoxicity than the other brevibacillins”.

Q: And the hemolytic activity (human red blood cells; 128 mg/L, ref Zhao et al.)?
A: Its hemolytic activity is “no hemolytic activity”.

Q: And the “HC50, 50% human blood cell hemolysis concentration” value (human red blood cells)?
A: The value was > 128 mg/L.
